Laboratory results: ChEMBL document CHEMBL3431459, “Roche carnitine palmitoyltransferase modulator screening data (supplementary data associated with the publication CHEMBL2216752)”
Values after ≈ are worked out from the molar mass of the structure shown.

Assays:
[1] = target: T1, Carnitine O-palmitoyltransferase 1, muscle isoform (Homo sapiens, UniProt Q92523); experiment: SUPPLEMENTARY: Inhibition of Carnitine palmitoyltransferase 1, muscle isoform; parameters: species or system Muscle tissue
T1 sequence (Q92523 whole entry): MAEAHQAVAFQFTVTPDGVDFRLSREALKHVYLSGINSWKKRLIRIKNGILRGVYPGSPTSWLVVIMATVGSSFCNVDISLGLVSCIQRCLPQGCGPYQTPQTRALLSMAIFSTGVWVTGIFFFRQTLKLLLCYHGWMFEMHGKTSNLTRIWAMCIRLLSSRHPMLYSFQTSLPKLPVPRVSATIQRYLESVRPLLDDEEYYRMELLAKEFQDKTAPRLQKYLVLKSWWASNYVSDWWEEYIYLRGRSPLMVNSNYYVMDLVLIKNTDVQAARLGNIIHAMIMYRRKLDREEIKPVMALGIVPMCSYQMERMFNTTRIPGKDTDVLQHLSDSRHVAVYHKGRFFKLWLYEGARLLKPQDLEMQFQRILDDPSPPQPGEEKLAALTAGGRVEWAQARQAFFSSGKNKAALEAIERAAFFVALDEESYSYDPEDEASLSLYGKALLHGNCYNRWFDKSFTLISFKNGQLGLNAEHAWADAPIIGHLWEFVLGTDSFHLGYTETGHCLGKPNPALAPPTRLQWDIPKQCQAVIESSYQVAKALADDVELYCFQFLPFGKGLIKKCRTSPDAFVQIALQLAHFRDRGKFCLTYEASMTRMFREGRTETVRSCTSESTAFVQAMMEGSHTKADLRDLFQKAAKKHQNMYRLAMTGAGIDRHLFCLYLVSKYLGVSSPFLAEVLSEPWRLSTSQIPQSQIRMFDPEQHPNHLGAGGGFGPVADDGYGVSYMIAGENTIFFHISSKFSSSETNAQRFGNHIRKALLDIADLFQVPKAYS

[2] = SUPPLEMENTARY: Lipophilicity (log D) Determination by high-throughput shake-flask; format: physicochemical; conditions: octanol/water
[3] = SUPPLEMENTARY: PAMPA permeability assay; format: physicochemical; conditions: read-out: Permeability
[4] = SUPPLEMENTARY: Lyophilisation Solubility Assay (LYSA); format: physicochemical; conditions: read-out: Kinetic_solubility
[5] = target: T2, Carnitine O-palmitoyltransferase 2, mitochondrial (Homo sapiens, UniProt P23786); experiment: (§1) SUPPLEMENTARY: Inhibition of Carnitine palmitoyltransferase 2
T2 sequence (P23786 whole entry): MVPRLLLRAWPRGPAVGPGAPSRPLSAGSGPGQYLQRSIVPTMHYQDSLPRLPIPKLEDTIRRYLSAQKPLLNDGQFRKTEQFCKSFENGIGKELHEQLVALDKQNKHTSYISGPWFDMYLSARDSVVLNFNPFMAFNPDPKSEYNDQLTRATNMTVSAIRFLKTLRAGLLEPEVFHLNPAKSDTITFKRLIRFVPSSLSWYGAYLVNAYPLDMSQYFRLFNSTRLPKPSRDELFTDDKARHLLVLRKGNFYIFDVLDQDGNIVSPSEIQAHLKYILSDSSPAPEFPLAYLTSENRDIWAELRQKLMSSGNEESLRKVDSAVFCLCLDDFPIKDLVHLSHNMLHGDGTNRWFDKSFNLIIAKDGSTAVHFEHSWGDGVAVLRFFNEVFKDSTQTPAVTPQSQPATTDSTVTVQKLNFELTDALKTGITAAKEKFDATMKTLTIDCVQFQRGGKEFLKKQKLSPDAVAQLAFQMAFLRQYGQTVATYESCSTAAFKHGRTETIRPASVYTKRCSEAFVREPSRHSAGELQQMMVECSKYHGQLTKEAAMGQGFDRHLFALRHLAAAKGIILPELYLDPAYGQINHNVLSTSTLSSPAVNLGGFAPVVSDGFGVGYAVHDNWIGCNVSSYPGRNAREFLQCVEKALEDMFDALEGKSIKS

[6] = target: T3, Carnitine O-palmitoyltransferase 2, mitochondrial (Rattus norvegicus, UniProt P18886); experiment: as §1
T3 sequence (P18886 whole entry): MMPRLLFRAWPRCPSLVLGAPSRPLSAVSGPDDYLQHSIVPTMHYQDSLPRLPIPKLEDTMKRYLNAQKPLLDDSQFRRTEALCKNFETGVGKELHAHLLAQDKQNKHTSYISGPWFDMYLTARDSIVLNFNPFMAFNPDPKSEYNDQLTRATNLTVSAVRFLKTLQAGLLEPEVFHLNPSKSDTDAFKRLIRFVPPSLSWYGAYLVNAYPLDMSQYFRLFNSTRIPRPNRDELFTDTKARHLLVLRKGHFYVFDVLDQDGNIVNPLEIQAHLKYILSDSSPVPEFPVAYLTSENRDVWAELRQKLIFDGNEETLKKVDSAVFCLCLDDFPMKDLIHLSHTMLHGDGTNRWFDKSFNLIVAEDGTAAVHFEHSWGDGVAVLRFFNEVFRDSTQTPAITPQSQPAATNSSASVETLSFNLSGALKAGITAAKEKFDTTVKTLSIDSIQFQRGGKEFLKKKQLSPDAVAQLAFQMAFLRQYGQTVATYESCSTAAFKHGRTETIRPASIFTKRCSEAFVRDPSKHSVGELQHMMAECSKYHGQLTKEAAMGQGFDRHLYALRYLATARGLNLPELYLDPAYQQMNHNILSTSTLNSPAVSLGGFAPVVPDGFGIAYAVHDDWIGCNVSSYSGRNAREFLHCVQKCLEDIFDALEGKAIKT

[7] = target: T4, Carnitine O-palmitoyltransferase 1, liver isoform (Rattus norvegicus, UniProt P32198); experiment: (§2) SUPPLEMENTARY: Inhibition of Carnitine palmitoyltransferase 1, liver isoform
T4 sequence (P32198 whole entry): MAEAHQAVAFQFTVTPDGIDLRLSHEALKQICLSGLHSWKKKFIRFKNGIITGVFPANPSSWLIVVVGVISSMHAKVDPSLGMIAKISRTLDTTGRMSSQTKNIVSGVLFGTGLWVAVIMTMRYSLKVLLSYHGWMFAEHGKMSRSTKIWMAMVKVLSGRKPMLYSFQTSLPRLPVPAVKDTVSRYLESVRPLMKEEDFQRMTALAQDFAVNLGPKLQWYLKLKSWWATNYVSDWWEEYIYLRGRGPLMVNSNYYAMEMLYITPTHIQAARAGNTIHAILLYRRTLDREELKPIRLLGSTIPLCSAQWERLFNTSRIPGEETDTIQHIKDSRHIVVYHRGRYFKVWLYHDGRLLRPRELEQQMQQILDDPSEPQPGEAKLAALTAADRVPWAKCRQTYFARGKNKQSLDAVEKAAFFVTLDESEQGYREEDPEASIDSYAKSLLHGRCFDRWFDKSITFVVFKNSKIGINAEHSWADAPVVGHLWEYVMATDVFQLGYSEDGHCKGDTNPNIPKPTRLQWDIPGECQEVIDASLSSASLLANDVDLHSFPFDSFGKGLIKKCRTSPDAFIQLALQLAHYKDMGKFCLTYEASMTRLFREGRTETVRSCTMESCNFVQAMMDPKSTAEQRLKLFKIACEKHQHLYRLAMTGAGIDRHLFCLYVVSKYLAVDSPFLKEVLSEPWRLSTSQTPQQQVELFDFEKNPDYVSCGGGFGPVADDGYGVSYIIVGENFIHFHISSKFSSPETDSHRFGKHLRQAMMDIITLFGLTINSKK

[8] = target: T5, Carnitine O-palmitoyltransferase 1, liver isoform (Homo sapiens, UniProt P50416); experiment: as §2
T5 sequence (P50416 whole entry): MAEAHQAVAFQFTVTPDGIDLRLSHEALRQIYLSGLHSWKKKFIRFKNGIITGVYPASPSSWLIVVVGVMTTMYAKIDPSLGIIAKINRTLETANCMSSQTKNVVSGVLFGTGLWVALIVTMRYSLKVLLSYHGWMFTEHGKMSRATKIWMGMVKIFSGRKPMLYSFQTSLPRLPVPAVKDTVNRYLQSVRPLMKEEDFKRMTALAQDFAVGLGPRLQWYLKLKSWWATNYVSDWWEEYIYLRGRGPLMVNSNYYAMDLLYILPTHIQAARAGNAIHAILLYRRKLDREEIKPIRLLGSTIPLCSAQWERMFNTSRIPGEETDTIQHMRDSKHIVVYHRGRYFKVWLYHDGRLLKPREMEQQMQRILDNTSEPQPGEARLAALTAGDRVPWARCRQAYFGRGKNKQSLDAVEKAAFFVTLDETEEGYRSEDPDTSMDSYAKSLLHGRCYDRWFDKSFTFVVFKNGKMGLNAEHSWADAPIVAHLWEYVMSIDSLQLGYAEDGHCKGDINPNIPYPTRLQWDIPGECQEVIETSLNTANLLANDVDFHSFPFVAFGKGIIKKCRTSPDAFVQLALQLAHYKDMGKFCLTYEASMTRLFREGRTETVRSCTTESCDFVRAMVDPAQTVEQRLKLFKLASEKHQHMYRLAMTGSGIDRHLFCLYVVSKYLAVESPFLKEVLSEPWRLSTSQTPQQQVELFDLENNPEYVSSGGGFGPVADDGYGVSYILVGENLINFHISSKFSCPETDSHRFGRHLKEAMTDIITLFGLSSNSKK

SMILES	IC50 [1]	logD [2]	Papp [3]	solubility kinetic [4]	IC50 [5]	IC50 [6]	IC50 [7]	IC50 [8]
O=C(COc1ccccc1)N1CCCC[C@@H]1c1csc(-c2ccccn2)n1	> 100 µM	> 3	4.83 ×10⁻⁶ cm/s	18 µg/mL (≈ 47.4 µM)	> 100 µM	> 100 µM	0.108 µM	
COc1ccc(Cl)cc1S(=O)(=O)N1CCc2ccc(C(=O)Nc3ccc(C(=O)O)c(F)c3)cc21	0.989 µM	0.38	1.67 ×10⁻⁶ cm/s	26 µg/mL (≈ 51.5 µM)	1.37 µM	4.86 µM	0.0663 µM	
O=C(COc1ccccc1)N1CCCC[C@@H]1c1nc(-c2ccccc2)cs1	> 100 µM	3.8	1.48 ×10⁻⁶ cm/s	< 1 µg/mL	> 100 µM	> 100 µM	0.306 µM	
Cc1ccc(-c2nc([C@H]3CCCCN3C(=O)COc3ccccc3)cs2)cn1	36 µM	> 3	2.07 ×10⁻⁶ cm/s	37 µg/mL (≈ 94 µM)	24.3 µM	88.3 µM	0.0605 µM	
N#Cc1ccc(-c2csc([C@H]3CCCCN3C(=O)COc3ccccc3)n2)cc1	> 100 µM	> 3	1.95 ×10⁻⁶ cm/s	< 1 µg/mL	41.6 µM	> 100 µM	0.245 µM	
COc1ccc(Cl)cc1S(=O)(=O)N1CCCc2ccc(Oc3ccc(CC(=O)O)cc3)cc21	0.145 µM	1.79	0.77 ×10⁻⁶ cm/s		> 100 µM	> 100 µM		0.55 µM
O=C(COc1ccccc1)N1CCCC[C@@H]1c1nc(-c2ccncc2)cs1	> 100 µM	2.95	3.84 ×10⁻⁶ cm/s	39 µg/mL (≈ 103 µM)	8.32 µM	31.6 µM	0.265 µM	
COc1ccc(Cl)cc1S(=O)(=O)N1COc2ccc(C(=O)Nc3ccc(C(=O)O)c(F)c3)cc21	2.08 µM	0.35	1.92 ×10⁻⁶ cm/s	30 µg/mL (≈ 59.2 µM)	3.45 µM	20.5 µM	0.0947 µM	
COc1ccc(-c2nc([C@H]3CCCCN3C(=O)COc3ccccc3)cs2)cn1	> 100 µM	> 3	0.3 ×10⁻⁶ cm/s	2 µg/mL (≈ 4.88 µM)	58.9 µM	> 100 µM	0.108 µM	
O=C(O)c1cccc(-c2csc([C@H]3CCCCN3C(=O)COc3ccccc3)n2)c1	> 100 µM	1.06	5.06 ×10⁻⁶ cm/s	344 µg/mL (≈ 814 µM)	31.8 µM	78.6 µM	0.159 µM	
O=C(COc1ccccc1)N1CCCC[C@@H]1c1nc(-c2ccccn2)cs1	> 100 µM	3.37	9.04 ×10⁻⁶ cm/s	24 µg/mL (≈ 63.2 µM)			0.128 µM	
COc1ccc(Cl)cc1S(=O)(=O)Nc1cccc(C(=O)Nc2ccc(-c3nnn[nH]3)cc2)c1	0.674 µM	0.35		25 µg/mL (≈ 51.6 µM)	> 100 µM	> 100 µM	0.0145 µM	0.0186 µM
